Measured values published in ChEMBL document CHEMBL1201862, “PubChem BioAssay data set” (2004).
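Exposure lasted 48 hours, with cells grown in 96-well plates and compounds tested at five concentrations. At the GI50, growth is halved.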 Active and inactive are the calls of the source. Rule as the data show it: active = GI50 up to about 1.1 µM and inactive = higher.

Experiments:
Assay in all cases: inhibition of tumour cell growth, NCI panel, 48 h
HCT-15 = system: HCT-15
SF-268 = system: SF-268
HOP-62 = system: HOP-62
SN12C = system: SN12C
UACC-62 = system: UACC-62
UO-31 = system: UO-31
MDA-MB-231 = system: MDA-MB-231
M14 = system: M14
OVCAR-3 = system: OVCAR-3
RPMI-8226 = system: RPMI-8226
NCI-H460 = system: NCI-H460
KM12 = system: KM12
PC-3 = system: PC-3
DU-145 = system: DU-145
U-251 = system: U-251
A498 = system: A498
SK-MEL-2 = system: SK-MEL-2
SNB-19 = system: SNB-19
SK-MEL-5 = system: SK-MEL-5
CAKI-1 = system: CAKI-1

Row | SMILES | GI50 (HCT-15) | GI50 (SF-268) | GI50 (HOP-62) | GI50 (SN12C) | GI50 (UACC-62) | GI50 (UO-31) | GI50 (MDA-MB-231) | GI50 (M14) | GI50 (OVCAR-3) | GI50 (RPMI-8226) | GI50 (NCI-H460) | GI50 (KM12) | GI50 (PC-3) | GI50 (DU-145) | GI50 (U-251) | GI50 (A498) | GI50 (SK-MEL-2) | GI50 (SNB-19) | GI50 (SK-MEL-5) | GI50 (CAKI-1)
1 | C=C(C1=CC(=O)C(C)(C)O1)[C@@H]1CC=C([C@@H]2CC[C@H]3[C@@]2(C)CC[C@H]2C(C)(C)C(=O)[C@H](O)C[C@]32C)[C@H](O)O1 | 2.04 µM | 1.88 µM (inactive) | 3.15 µM (inactive) | 1.98 µM (inactive) | 4.88 µM (inactive) | 1.53 µM (inactive) | 2.15 µM (inactive) | 1.58 µM (inactive) | 0.847 µM (active) | 0.342 µM (active) | 13 µM (inactive) | 3.86 µM (inactive) | 1.31 µM (inactive) | 1.03 µM (active) | 1.62 µM (inactive) | 5.16 µM (inactive) | 2.2 µM (inactive) | 10.2 µM (inactive) | 11.7 µM (inactive) | 3.89 µM (inactive)
2 | CCCC(=O)Nc1cc(C(=O)N2C[C@@H]3C[C@]34C2=CC(=O)c2[nH]cc(C)c24)n(COC)c1 | 15.9 µM | 1.48 µM (inactive) | 14 µM (inactive) | 10.6 µM (inactive) | 5.86 µM (inactive) | 8.97 µM (inactive) | 8.53 µM (inactive) | 12.4 µM (inactive) | 6.81 µM (inactive) | 12.2 µM (inactive) | 6.64 µM (inactive) | 8.85 µM (inactive) | 7.33 µM (inactive) | 2.54 µM (inactive) | 3.17 µM (inactive) | 10 µM (inactive) | 2.38 µM (inactive) | 12.4 µM (inactive) | 1.54 µM (inactive) | 2.21 µM (inactive)
3 | CO/C=C(/C(=O)OC)c1ccccc1COc1cccc(C(F)(F)F)c1 | 4.19 µM | 8.77 µM (inactive) | 12.6 µM (inactive) | 8.28 µM (inactive) | 0.638 µM (active) | 4.17 µM (inactive) | 7.89 µM (inactive) | 68.7 µM (inactive) | 10.2 µM (inactive) | 0.408 µM (active) | 1.22 µM (inactive) | 11.3 µM (inactive) | 7.43 µM (inactive) | 11.6 µM (inactive) | 3.22 µM (inactive) | 4.85 µM (inactive) | 11.6 µM (inactive) | 22.1 µM (inactive) | 0.473 µM (active) | 4.84 µM (inactive)
4 | COc1cc2c(cc1C)NC(=O)/C2=C/c1c(Cl)[nH]c2ccccc12 | 3.38 µM | 4.22 µM (inactive) | 3.28 µM (inactive) | 5.3 µM (inactive) | 3.57 µM (inactive) | 10.3 µM (inactive) | 3.95 µM (inactive) | 3.21 µM (inactive) | 2.26 µM (inactive) | 4.6 µM (inactive) | 3.92 µM (inactive) | 3.1 µM (inactive) | 5.21 µM (inactive) | 13.3 µM (inactive) | 4.69 µM (inactive) | 4.57 µM (inactive) | 2.8 µM (inactive) | 4.5 µM (inactive) | 3.15 µM (inactive) | 7.71 µM (inactive)
